According to patent US20210070747A1, “2(1H)-QUINOLINONE DERIVATIVE” (priority 2017, published 2021):
Structures can show the parent of a compound that is named as a salt.

Legend:
E. Coli ATCC 25922 = assay: Test for evaluating antibacterial activity (E. coli), broth microdilution MIC; type: cell-based; conditions: Escherichia coli, ATCC25922; 35° C., 18 hours, cation-adjusted Mueller-Hinton medium
In short: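 Broth microdilution per modified CLSI method in cation-adjusted Mueller-Hinton medium. Inoculum from overnight heart infusion agar growth, McFarland 0.5 suspension diluted 10-fold; incubation 35° C for 18 hours. MIC taken as lowest drug concentration with no visible growth.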

[1] = system: N. gonorrhoeae ATCC 49226; assay: Test for evaluating antibacterial activity (N. gonorrhoeae), broth microdilution MIC; type: cell-based; conditions: Neisseria gonorrhoeae, ATCC49226; 35° C., 24 hours, gonococcal broth
In short: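 Broth microdilution in gonococcal broth with 1% supplement C, inoculum from overnight chocolate II agar culture at McFarland 0.5 diluted 5-fold.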

E. coli DNA gyrase = target: T1, E. coli DNA gyrase (Escherichia coli, UniProt P0AES6); assay: Test for evaluating the activity of inhibiting E. coli DNA gyrase enzyme (Method 1, supercoiling, Inspiralis enzyme); type: biochemical
T1 construct: made in house; host or cells: E. coli BL21 (DE3)
In short: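 Relaxed pBR322 (1 ng/μL) supercoiled by E. coli gyrase (0.006 U/μL final) with 0.5 mmol/L ATP in 20 mmol/L Tris-HCl pH 8.0, 8 mmol/L MgCl2, 35 mmol/L ammonium acetate, 60 min, room temperature. Stopped with H19; supercoiled/relaxed ratio read at 485/535 nm; inhibition curve across compound concentrations.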

E. coli topoisomerase IV = target: T2, E. coli topoisomerase IV (Escherichia coli, UniProt P20083); assay: Test for evaluating the activity of inhibiting E. coli topoisomerase IV enzyme (relaxation); type: biochemical
T2 construct: purchased Inspiralis
Description: The enzymatic activity of E. coli topoisomerase IV was measured by a method comprising reacting topoisomerase IV and its substrate, supercoiled pBR322 (Inspiralis), in the presence of ATP and detecting the post-reaction supercoiled pBR322/relaxed pBR322 ratio with H19.
Specifically, to 2 ng/μL of supercoiled pBR322, E. coli topoisomerase IV enzyme (Inspiralis) was added at a final concentration of 0.0075 U/μL and the mixture was incubated for 30 minutes at room temperature. This reaction was carried out in 20 mmol/L tris-HCl buffered solution (pH 8.0) comprising 0.5 mmol/L ATP, 0.005% bridge 35, 35 mmol/L ammonium acetate, 8 mmol/L magnesium chloride, 4.6% glycerol, and 1 mmol/L dithiothreitol. To the reaction mixture, H19 was added to bring the reaction to an end; thereafter, the supercoiled pBR322/relaxed pBR322 ratio was detected at excitation wavelength/emission wavelength=485 nm/535 nm. An inhibition curve was obtained by allowing the analyte compound to be present at varying concentrations during the reaction described above.

T2 sequence (P20083 whole entry): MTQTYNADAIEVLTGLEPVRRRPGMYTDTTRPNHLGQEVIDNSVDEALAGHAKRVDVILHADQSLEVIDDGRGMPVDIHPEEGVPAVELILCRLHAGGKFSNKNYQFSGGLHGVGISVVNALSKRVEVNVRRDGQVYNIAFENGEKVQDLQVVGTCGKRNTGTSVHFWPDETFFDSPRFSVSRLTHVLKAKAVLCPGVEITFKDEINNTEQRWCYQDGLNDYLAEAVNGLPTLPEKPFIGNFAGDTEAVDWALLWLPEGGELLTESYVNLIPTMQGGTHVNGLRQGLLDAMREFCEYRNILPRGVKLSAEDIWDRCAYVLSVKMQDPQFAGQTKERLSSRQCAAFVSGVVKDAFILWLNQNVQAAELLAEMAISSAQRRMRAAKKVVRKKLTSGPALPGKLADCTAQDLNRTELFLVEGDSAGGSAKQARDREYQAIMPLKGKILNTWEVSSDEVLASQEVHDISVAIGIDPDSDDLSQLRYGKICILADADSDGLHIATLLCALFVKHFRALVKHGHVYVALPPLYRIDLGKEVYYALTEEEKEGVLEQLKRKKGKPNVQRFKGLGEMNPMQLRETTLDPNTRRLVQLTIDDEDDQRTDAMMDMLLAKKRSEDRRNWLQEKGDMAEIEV
T2 sequence (P0AFI2 whole entry, further chain): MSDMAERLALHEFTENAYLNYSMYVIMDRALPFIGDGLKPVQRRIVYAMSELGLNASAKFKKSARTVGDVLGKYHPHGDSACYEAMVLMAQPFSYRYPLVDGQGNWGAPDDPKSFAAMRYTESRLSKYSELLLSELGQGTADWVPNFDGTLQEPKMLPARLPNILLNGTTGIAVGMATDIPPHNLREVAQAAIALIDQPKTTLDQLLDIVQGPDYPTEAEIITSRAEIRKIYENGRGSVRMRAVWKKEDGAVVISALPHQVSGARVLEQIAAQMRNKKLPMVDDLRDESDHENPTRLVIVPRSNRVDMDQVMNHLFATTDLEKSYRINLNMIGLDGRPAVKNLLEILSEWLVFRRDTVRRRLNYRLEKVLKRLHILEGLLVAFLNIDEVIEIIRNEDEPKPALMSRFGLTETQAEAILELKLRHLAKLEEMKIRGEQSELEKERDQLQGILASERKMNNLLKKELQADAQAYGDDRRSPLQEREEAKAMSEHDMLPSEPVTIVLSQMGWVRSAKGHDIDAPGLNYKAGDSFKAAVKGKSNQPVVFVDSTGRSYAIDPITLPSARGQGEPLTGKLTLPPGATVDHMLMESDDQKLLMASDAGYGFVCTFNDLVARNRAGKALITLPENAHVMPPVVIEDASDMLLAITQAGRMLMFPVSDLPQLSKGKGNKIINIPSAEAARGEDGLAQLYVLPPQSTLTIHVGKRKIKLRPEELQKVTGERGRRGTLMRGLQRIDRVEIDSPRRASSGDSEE

CNc1cc(F)cc2cc(C(=O)Nc3ccc(C(=O)O)cc3CN(C)C3CCCCC3)c(=O)[nH]c12 [Example 70, 3-{[cyclohexyl (methyl)amino]methyl}-4-{[6-fluoro-8-(methylamino)-2-oxo-1,2-dihydroquinoline-3-carbonyl]amino} bezoic acid-hydrochloride]
MIC (E. Coli ATCC 25922): 8 µg/mL
MIC [1]: 0.03 µg/mL
IC50 (E. coli DNA gyrase): 0.53 nM
IC50 (E. coli topoisomerase IV): 47.4 nM
